In PMC10009787 (ACS Medicinal Chemistry Letters, 2023):
“And” between values parts separate entries of the source, which are not always exact repeats. Identical values can stand only once. Like-named read-outs stand apart in the source and are kept apart here.

Experiments:
KDR (VEGFR2) = KDR (VEGFR2) (Homo sapiens, UniProt P35968); assay: SelectScreen kinase profiling; format: biochemical; conditions: average of duplicate
YES1 = YES1 (Homo sapiens, UniProt P07947); assay: SelectScreen kinase profiling; format: biochemical; conditions: average of duplicate
LYN B = LYN B (Homo sapiens, UniProt P07948); assay: SelectScreen kinase profiling; format: biochemical; conditions: average of duplicate
Sequence of LYN B (P07948 1-491 isoform P07948-2): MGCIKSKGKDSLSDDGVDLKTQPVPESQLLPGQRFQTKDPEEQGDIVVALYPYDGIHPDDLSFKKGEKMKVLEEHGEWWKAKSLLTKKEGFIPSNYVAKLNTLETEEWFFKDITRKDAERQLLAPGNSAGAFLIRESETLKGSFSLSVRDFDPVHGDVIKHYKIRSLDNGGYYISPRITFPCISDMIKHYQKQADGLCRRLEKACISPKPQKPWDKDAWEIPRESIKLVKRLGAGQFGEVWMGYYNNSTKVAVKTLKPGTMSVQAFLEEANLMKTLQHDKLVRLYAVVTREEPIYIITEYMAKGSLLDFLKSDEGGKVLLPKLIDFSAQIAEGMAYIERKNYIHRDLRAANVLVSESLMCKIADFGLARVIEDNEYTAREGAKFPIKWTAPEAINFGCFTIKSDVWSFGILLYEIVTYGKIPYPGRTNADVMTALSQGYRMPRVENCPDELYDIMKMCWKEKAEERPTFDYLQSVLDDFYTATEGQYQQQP

FGR = FGR (Homo sapiens, UniProt P09769); assay: SelectScreen kinase profiling; format: biochemical; conditions: average of duplicate
[1] = test system: ibrutinib’s top 50 targets; assay: Single-point kinase profiling, count of kinases inhibited; format: biochemical; conditions: 1 μM, of 50 kinases
FLT4 (VEGFR3) = FLT4 (VEGFR3) (Homo sapiens, UniProt P35916); assay: SelectScreen kinase profiling; format: biochemical; conditions: average of duplicate
Sequence of FLT4 (VEGFR3) (P35916 25-1363): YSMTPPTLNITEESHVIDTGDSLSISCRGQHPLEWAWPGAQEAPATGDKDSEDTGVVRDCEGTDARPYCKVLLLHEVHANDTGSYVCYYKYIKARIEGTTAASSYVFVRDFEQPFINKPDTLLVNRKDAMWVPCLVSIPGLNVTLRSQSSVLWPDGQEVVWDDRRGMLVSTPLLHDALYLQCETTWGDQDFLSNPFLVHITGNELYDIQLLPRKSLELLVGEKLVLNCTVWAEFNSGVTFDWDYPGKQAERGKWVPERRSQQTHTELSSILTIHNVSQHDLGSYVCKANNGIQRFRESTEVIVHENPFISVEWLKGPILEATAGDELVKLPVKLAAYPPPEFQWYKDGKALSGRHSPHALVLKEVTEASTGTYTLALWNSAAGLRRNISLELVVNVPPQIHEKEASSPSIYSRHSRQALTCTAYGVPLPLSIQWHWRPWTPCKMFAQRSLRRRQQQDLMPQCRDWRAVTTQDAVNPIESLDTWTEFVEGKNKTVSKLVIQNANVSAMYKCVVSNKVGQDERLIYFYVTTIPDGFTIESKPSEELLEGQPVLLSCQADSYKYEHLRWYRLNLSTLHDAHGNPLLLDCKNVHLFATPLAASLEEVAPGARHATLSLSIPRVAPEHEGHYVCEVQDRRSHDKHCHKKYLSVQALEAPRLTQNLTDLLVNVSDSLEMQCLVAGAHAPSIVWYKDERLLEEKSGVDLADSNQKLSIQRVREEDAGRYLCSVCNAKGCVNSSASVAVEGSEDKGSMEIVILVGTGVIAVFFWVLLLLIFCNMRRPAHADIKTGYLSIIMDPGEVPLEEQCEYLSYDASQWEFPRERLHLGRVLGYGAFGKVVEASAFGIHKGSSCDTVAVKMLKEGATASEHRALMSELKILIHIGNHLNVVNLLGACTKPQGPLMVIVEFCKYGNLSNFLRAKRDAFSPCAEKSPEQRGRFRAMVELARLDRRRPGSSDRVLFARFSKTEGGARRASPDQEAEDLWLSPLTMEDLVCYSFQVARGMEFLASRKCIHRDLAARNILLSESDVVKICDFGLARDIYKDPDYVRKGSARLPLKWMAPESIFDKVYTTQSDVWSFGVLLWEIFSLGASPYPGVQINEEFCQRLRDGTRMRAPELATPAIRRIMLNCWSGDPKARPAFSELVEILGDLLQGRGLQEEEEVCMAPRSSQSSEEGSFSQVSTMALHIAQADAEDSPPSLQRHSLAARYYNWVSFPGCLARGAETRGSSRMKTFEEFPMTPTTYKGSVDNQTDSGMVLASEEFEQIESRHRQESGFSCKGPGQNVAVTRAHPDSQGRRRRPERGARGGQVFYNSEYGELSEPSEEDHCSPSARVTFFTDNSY

LCK = LCK (Homo sapiens, UniProt P06239); assay: SelectScreen kinase profiling; format: biochemical; conditions: average of duplicate
EGFR (ErbB1) T790M = EGFR (ErbB1) T790M (Homo sapiens, UniProt P00533, T790M); assay: SelectScreen kinase profiling; format: biochemical; conditions: average of duplicate
Sequence of EGFR (ErbB1) T790M (P00533 25-1210 T790M): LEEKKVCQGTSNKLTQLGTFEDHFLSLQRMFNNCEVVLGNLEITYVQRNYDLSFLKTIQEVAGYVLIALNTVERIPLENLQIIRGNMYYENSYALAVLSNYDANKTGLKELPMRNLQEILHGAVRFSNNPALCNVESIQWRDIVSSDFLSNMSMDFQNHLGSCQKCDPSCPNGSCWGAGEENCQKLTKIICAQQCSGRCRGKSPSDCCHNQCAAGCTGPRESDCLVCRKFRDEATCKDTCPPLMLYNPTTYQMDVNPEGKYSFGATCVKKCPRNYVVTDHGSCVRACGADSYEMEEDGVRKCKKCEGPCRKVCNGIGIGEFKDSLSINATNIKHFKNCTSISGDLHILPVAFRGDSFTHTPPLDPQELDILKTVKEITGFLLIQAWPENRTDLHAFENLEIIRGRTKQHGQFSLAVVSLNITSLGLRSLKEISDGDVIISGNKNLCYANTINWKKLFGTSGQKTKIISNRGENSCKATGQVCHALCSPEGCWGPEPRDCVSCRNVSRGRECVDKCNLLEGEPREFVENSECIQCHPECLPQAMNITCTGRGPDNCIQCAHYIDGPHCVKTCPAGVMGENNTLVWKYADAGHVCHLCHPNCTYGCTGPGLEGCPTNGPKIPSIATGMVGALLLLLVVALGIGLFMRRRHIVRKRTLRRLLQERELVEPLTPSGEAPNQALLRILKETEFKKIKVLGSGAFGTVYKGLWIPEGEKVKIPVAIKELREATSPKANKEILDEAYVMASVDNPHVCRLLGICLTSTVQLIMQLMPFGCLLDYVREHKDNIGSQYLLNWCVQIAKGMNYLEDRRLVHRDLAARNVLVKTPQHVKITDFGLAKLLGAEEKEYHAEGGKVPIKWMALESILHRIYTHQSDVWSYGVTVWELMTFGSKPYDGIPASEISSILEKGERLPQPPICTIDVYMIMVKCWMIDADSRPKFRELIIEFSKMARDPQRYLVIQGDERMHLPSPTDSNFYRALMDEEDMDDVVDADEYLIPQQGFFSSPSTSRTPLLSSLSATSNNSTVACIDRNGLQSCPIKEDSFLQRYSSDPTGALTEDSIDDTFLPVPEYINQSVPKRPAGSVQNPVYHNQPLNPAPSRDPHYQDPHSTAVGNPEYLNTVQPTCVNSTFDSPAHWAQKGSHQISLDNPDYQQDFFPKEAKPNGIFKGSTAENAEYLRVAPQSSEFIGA

EGFR (ErbB1) d746-750 = EGFR (ErbB1) d746-750 (Homo sapiens, UniProt P00533, DEL746-750); assay: SelectScreen kinase profiling; format: biochemical; conditions: average of duplicate
FYN = FYN (Homo sapiens, UniProt P06241); assay: SelectScreen kinase profiling; format: biochemical; conditions: average of duplicate
Sequence of FYN (P06241 whole entry): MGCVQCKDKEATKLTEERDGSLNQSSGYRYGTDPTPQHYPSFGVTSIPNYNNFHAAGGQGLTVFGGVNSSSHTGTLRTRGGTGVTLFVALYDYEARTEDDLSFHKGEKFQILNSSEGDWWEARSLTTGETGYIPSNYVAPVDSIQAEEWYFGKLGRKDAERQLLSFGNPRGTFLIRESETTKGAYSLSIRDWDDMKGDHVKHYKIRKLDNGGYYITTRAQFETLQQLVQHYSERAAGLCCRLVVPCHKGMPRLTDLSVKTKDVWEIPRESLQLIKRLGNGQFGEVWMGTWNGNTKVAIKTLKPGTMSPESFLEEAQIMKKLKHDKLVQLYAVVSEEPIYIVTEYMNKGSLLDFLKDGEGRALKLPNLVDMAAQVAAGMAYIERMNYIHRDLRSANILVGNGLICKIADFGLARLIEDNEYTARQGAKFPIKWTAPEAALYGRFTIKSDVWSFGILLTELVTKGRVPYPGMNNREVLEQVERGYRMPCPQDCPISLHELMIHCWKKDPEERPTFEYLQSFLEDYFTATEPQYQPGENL

CSK = CSK (Homo sapiens, UniProt P41240); assay: SelectScreen kinase profiling; format: biochemical; conditions: average of duplicate
FGFR1 = FGFR1 (Homo sapiens, UniProt P11362); assay: SelectScreen kinase profiling; format: biochemical; conditions: average of duplicate
HCK = HCK (Homo sapiens, UniProt P08631); assay: SelectScreen kinase profiling / Z′-Lyte kinase assay
Sequence of HCK (P08631 whole entry): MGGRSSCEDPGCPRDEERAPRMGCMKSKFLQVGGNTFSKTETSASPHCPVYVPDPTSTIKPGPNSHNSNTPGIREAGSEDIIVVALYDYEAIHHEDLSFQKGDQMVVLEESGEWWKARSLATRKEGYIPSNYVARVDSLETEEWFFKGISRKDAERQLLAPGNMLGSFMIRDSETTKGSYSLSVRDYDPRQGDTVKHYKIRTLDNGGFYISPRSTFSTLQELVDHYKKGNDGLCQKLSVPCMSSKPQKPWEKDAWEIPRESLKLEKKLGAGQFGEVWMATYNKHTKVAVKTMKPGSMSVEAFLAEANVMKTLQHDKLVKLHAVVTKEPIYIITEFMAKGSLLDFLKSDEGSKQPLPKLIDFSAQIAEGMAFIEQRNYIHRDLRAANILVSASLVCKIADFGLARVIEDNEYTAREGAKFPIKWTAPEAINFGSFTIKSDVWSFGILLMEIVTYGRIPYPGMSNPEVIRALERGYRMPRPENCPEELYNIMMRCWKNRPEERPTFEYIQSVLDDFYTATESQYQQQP

FLT3 = FLT3 (Homo sapiens, UniProt P36888); assay: SelectScreen kinase profiling; format: biochemical; conditions: average of duplicate
Sequence of FLT3 (P36888 27-993): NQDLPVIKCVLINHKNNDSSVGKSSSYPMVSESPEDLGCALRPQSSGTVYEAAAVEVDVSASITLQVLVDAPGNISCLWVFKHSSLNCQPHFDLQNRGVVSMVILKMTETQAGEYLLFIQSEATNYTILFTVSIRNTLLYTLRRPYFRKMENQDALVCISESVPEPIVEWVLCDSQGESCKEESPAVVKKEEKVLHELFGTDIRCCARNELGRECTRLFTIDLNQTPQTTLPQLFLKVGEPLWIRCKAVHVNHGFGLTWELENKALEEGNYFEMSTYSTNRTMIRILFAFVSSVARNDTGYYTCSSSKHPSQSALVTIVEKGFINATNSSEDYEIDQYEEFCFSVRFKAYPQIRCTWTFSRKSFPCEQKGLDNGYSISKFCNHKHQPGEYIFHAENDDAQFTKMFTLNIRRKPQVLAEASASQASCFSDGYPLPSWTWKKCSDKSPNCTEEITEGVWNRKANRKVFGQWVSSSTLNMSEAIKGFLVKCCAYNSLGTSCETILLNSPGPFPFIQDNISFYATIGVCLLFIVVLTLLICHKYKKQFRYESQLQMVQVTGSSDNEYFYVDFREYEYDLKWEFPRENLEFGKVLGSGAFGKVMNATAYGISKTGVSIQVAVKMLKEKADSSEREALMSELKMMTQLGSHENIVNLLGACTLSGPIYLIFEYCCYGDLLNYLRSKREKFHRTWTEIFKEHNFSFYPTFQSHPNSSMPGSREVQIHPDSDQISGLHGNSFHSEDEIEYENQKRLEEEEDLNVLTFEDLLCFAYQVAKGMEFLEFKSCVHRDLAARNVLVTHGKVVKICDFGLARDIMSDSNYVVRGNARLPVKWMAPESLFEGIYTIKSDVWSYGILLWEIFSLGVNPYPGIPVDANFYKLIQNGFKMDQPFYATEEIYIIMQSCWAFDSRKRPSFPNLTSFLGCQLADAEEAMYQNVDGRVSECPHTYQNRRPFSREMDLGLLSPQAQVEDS

TNK2 (ACK) = TNK2 (ACK) (Homo sapiens, UniProt Q07912); assay: SelectScreen kinase profiling; format: biochemical; conditions: average of duplicate
EGFR (ErbB1) L858R = EGFR (ErbB1) L858R (Homo sapiens, UniProt P00533, L858R); assay: SelectScreen kinase profiling; format: biochemical; conditions: average of duplicate
TNK1 = TNK1 (Homo sapiens, UniProt Q13470); assay: SelectScreen kinase profiling; format: biochemical; conditions: average of duplicate
BMX = biological target: T1, BMX (Homo sapiens, UniProt P51813); assay: SelectScreen kinase profiling / Z′-Lyte kinase assay
T1 sequence (P51813 1-675): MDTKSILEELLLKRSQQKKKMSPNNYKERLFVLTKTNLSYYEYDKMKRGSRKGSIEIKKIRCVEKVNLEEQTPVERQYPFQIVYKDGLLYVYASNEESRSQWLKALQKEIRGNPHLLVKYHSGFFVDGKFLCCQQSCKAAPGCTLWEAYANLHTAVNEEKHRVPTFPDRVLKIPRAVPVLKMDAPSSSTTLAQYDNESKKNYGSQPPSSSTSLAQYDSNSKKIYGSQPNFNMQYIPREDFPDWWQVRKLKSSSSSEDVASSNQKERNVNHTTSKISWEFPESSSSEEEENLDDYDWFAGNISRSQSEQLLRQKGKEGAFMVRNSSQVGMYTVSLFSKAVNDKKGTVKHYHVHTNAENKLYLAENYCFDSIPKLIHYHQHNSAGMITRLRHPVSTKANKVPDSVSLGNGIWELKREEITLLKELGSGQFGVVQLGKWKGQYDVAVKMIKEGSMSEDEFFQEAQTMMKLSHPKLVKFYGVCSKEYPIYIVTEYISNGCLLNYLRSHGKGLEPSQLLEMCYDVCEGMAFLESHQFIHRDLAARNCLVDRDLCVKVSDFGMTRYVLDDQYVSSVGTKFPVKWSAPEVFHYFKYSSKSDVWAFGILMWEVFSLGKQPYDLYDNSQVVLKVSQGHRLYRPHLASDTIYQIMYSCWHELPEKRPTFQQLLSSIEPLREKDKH

FGFR3 = FGFR3 (Homo sapiens, UniProt P22607); assay: SelectScreen kinase profiling; format: biochemical; conditions: average of duplicate
ZAK = ZAK (Homo sapiens, UniProt Q9NYL2); assay: SelectScreen kinase profiling; format: biochemical; conditions: average of duplicate
FGFR2 = FGFR2 (Homo sapiens, UniProt P21802); assay: SelectScreen kinase profiling; format: biochemical; conditions: average of duplicate

## C=CC(=O)N1CCCC(n2nc(-c3c(C)cc(Oc4ccccc4)cc3C)c3c(N)ncnc32)C1 (stereo in doubt) [Compound 3]
KDR (VEGFR2)
  inhibition at 1 µM: 5%
YES1
  inhibition at 1 µM: 45%
LYN B
  inhibition at 1 µM: 28%
FGR
  inhibition at 1 µM: 53%
[1]
  number of kinases inhibited to 10% of control: 6
  number of kinases inhibited to 50% of control: 9
FLT4 (VEGFR3)
  inhibition at 1 µM: 5%
LCK
  inhibition at 1 µM: 74%
EGFR (ErbB1) T790M
  inhibition at 1 µM: 6%
EGFR (ErbB1) d746-750
  inhibition at 1 µM: 23%
FYN
  inhibition at 1 µM: 19%
CSK
  inhibition at 1 µM: 15%
FGFR1
  inhibition at 1 µM: -1%
HCK
  inhibition at 1 µM: 19%
HCK; BTK selectivity from IC50 values
  HCK, BTK/Kinase: 180 x
HCK; HCK IC50, Z′-Lyte, [ATP] Km app, 1 h incubation, duplicate
  IC50: 2310 nM
HCK; HCK IC50 curve
  Hillslope: 1.00
HCK; read-out: % Inhibition Point 1
  inhibition at 0.000495 µM: 10%
  inhibition at 0.00152 µM: 9%
  inhibition at 0.00457 µM: 10%
  inhibition at 0.0137 µM: 6%
  inhibition at 0.0412 µM: 9%
  inhibition at 0.123 µM: 10%
  inhibition at 0.37 µM: 19%
  inhibition at 1.11 µM: 32%
  inhibition at 3.33 µM: 48%
  inhibition at 10 µM: 62%
HCK; read-out: % Inhibition Point 2
  inhibition at 0.000495 µM: 7%
  inhibition at 0.00152 µM: 7%
  inhibition at 0.00457 µM: 5%
  inhibition at 0.0137 µM: 10%
  inhibition at 0.0412 µM: 8%
  inhibition at 0.123 µM: 15%
  inhibition at 0.37 µM: 15%
  inhibition at 1.11 µM: 29%
  inhibition at 3.33 µM: 49%
  inhibition at 10 µM: 65%
FLT3
  inhibition at 1 µM: 13%
TNK2 (ACK)
  inhibition at 1 µM: 4%
EGFR (ErbB1) L858R
  inhibition at 1 µM: 2%
TNK1
  inhibition at 1 µM: 2%
BMX
  inhibition at 1 µM: 94%
BMX; BMX IC50, Z′-Lyte, [ATP] Km app, 1 h incubation, duplicate
  IC50: 5.7 nM and 5.67 nM
BMX; BMX IC50 curve
  Hillslope: 1.56
BMX; read-out: % Inhibition Point 1
  inhibition at 0.000495 µM: 6%
  inhibition at 0.00152 µM: 16%
  inhibition at 0.00457 µM: 48%
  inhibition at 0.0137 µM: 78%
  inhibition at 0.0412 µM: 94%
  inhibition at 0.123 µM: 102%
  inhibition at 0.37 µM: 101%
  inhibition at 1.11 µM: 98%
  inhibition at 3.33 µM: 99%
  inhibition at 10 µM: 98%
BMX; read-out: % Inhibition Point 2
  inhibition at 0.000495 µM: 10%
  inhibition at 0.00152 µM: 18%
  inhibition at 0.00457 µM: 42%
  inhibition at 0.0137 µM: 83%
  inhibition at 0.0412 µM: 101%
  inhibition at 0.123 µM: 97%
  inhibition at 0.37 µM: 98%
  inhibition at 1.11 µM: 102%
  inhibition at 3.33 µM: 100%
  inhibition at 10 µM: 102%
FGFR3
  inhibition at 1 µM: 3%
ZAK
  inhibition at 1 µM: 0%
FGFR2
  inhibition at 1 µM: 8%
